One data set relates to sham and HF EDL fibers. The experiment in a line: Skinned EDL fiber force-Ca2+ relationship. Also noted: species or system rat. The following applies: 3 μM, sham and HF EDL muscle. The protocol: (§1) Muscle tissue for in vitro skinned fiber studies were prepared using an adapted protocol based on Lynch and Faulkner (Am J Physiol 275:C1548-54 (1998)). Briefly, rat muscle from sham and HF animals were rapidly dissected, rinsed in physiological saline, and then incubated in skinning solution (125 mM K-propionate, 20 mM imidazole, 5 mM EGTA, 2 mM MgCl2, 2 mM ATP, pH 7.0) supplemented with 0.5% TritonX-100 (Sigma Chemicals, St. Louis, Mo.) for 30 minutes at 4° C. The buffer was then changed to a storage solution (125 mM K-propionate, 20 mM imidazole, 5 mM EGTA, 2 mM MgCl2, 2 mM ATP, glycerol 50%, pH 7.0) and stored at −20° C. for later use.
(§2) For skinned fiber analysis, single muscle fibers were dissected from larger segments of tissue in rigor buffer at 4° C. ([…], pH 7.0). They were then suspended between a 400 A force transducer (Aurora Scientific, Ontario, Canada) and a fixed post and secured with 2-4 μl of a 5% solution of methylcellulose in acetone. […] Tension was generated in each fiber by changing fiber buffer over to relax buffer supplemented with 1 mM EGTA and a 15 mM solution of calcium chloride and calculated using the web resource (www.stanford.edu/˜cpatton/webmaxc/webmaxcS.htm). […]

The subject of data set [1] is sham and LAD-HF diaphragm fibers. The experiment in a line: Skinned diaphragm fiber Ca2+ sensitivity. Also noted: species or system rat. To be noted: 3 μM. Here is the method:
as §1, §2

The subject of data set [2] is sham and LAD-HF diaphragm strips. The experiment in a line: Diaphragm force-frequency by electrical field stimulation in organ bath. The following applies: 30 μM, sham and LAD-HF diaphragms, submaximal frequencies of electrical stimulation. More on the design: species or system rat. Here is the method: Diaphragm contractile force was measured by electrical field stimulation in an organ bath system based on a standard operating protocol adapted from the Treat NMD website (http://www.treat-nmd.eu/downloads/file/sops/dmd/MDX/DMD M.1.2.002.pdf). The diaphragm and the last floating rib from sham and HF animals were excised, rinsed in physiological saline, and placed in a temperature controlled water-jacketed chamber (26-27° C.) containing Krebs-Henseleit Buffer (118 mM NaCl, 10 mM glucose, 4.6 mM KCl, 1.2 mM KH2PO4, 1.2 mM MgSO4*7 H2O, 24.8 mM NaHCO3, 2.5 mM CaCl2, 50 mg/L tubocurarine, 50 U/L insulin, pH:7.4) that was continuously aerated with 95% O2/[…]. After 10 minutes of equilibration, vertical strips spanning the floating rib to the central tendon were cut from diaphragms. Braided silk sutures were tied at the central tendon and floating rib and attached to a force transducer between two platinum electrodes. Diaphragm strips were set to a length that produced maximum twitch tension (Lo). The force-frequency profile of the muscle was obtained by stimulating the muscle at frequencies between 10-150 Hz (Grass Stimulator, 800 ms train duration, 0.6 ms pulse width). Compound C was suspended in DMSO and directly added into the bath.

In a further data set the test system is LAD-HF rats. The experiment in a line: Fatiguing rotarod in rat heart failure model. The format is in vivo. The text has this:
To determine the effect of Compound C on skeletal muscle function in patients with heart failure, a rat heart failure model was used. Female Sprague Dawley rats (<250 g) were obtained from Charles River Laboratories having the left anterior descending coronary artery ligated prior to shipping (LAD-HF rats). Sham operated controls were also obtained from the same surgical preparation (sham controls). All rats underwent assessment of cardiac function after a three day acclimation to provide baseline levels. Animals were assessed on weeks 4, 7 and 10 to observe the progress of exercise intolerance at least 3 days after echocardiography. Exercise performance was assessed using the fatiguing rotarod protocol described in Example 11 (5 minute run ramping from 14-16 RPM, followed by run time assessment during a 10 minute ramp from 12 to 25 RPM). LAD-HF rats were selected based on a left ventricular fractional shortening <25% and reduced run time compared to sham controls. […] Decreases in fractional shortening (determined by echocardiography) were apparent.
Animals were assigned in a cross-over fashion whereby half of the animals received Compound C (10 mg/kg PO) and half received vehicle (19.3%PEG: 80% (15%) captisol, pH3, 0.2% tween, 0.5% HPMC) via oral gavage 30 minutes prior to rotarod assessment on Day 1 and then the opposite treatment on Day 2.

Data set [3] deals with extensor digitorum longus (EDL) muscles. The experiment in a line: In situ EDL force-frequency in sham and LAD-HF rats. The format is in vivo, rat. The following applies: 3 mg/kg IV, sham and LAD-HF groups. The protocol:
An in situ assessment of selected animals from Example 12 was run at the end of the study to assess functional characteristics of extensor digitorum longus (EDL) muscles in Sham and LAD animals. Effects with and without Compound C (3 mg/kg IV) were assessed.
Rats were placed under anesthesia and the skin around the experimental leg was removed. The distal end of the extensor digitorum longus (EDL) muscle and its associated tendon were then isolated. The rat was then placed on the platform of an Aurora in situ muscle analysis rig wherein the knee was immobilized and the distal tendon cut and tied to the arm of a force transducer. The muscle was stimulated directly via steel needle electrodes contacting the peroneal nerve. Muscle contractile properties were assessed by applying an electrical current to the nerve and recording the force generated by the muscle via a servomotor. The muscle length was adjusted to produce the maximum isometric force (Lo) after sub-maximal stimulation (30 Hz, 1 ms pulses, 350 ms train duration). Once Lo had been established, the nerve was stimulated every 2 minutes with a 30 Hz train (1 ms stimuli, 350 ms duration) for the course of the experiment.
Once the preparation was stable, a force frequency relationship was assessed, then Compound C (3 mg/kg IV) or vehicle was injected and a second force frequency was assessed. […]

Data set [4] is described as follows: Plasma levels at end of rotarod experiment. The format is in vivo, rat. The following applies: end of experiment (not at Cmax). The protocol: The effect of the fast skeletal muscle troponin activator 1-(2-(((trans)-3-fluoro-1-(3-fluoropyridin-2-yl)cyclobutyl)methylamino)pyrimidin-5-yl)-1H-pyrrole-3-carboxamide (Compound C) on muscle fatigue in healthy rats was determined by a rotarod running time test. […] On the day of the assessment, the animals began by running at an increasing speed from 14-16 RPM over 5 minutes. Rats were then run at a constantly accelerating rate from 12 RPM to 25 RPM over the course of 10 minutes. Time to fall was recorded, with the test being terminated at 600 seconds. The plasma levels were determined at the end of the experiments (not at Cmax). The plasma levels for the indicated doses were determined to be the following: […]

Molecules are shown by their SMILES.

As to `NC(=O)c1ccn(-c2cnc(NCC3(c4ncccc4F)CC(F)C3)nc2)c1` (stereo not drawn) [Compound C, 1-(2-(((trans)-3-fluoro-1-(3-fluoropyridin-2-yl)cyclobutyl)methylamino)pyrimidin-5-yl)-1H-pyrrole-3-carboxamide], the “force-Ca2+ relationship” value with sham and HF EDL fibers is reported as “leftward shift in the force-Ca^2+ relationship”. Besides, in data set [1], the “Ca2+ sensitivity” value was “significantly increased Ca^2+ sensitivity”. In data set [2], the diaphragm force result is “significantly increased force”. Also, in the data set on LAD-HF rats (10 mg/kg PO), the “increase of rotarod running time compared to vehicle treatment” value is “approximately 2.5 fold”. In addition, in the data set on LAD-HF rats (10 mg/kg PO 30 minutes prior, vehicle 111±32), the “rotarod running time (mean±S.E.)” value amounted to 277 ± 32 s. Moreover, in data set [3], the “response to low frequency stimulation” value is given as “increased response to low frequency stimulation in both groups”. In addition, the “[Plasma]” value in data set [4] (0.01 mg/kg) stood at 0.003 µM; in data set [4] (0.03 mg/kg) it was 0.007 µM; in data set [4] (0.1 mg/kg), 0.024 µM; in data set [4] (0.3 mg/kg) it was 0.083 µM; in data set [4] (1 mg/kg), 0.204 µM; in data set [4] (3 mg/kg) it was 0.478 µM. Moreover, the “[Plasma]” value in data set [4] (10 mg/kg) amounted to 1.95 µM; in data set [4] (30 mg/kg) it was 3.64 µM; in data set [4] (100 mg/kg), 28.0 µM.

The record behind these values is patent US20190167676A1, “METHODS FOR IMPROVING RESISTANCE TO SKELETAL MUSCLE FATIGUE” (Cytokinetics, Inc., priority 2012, published 2019).
